Assay results as given in patent US9810690B2, “Method for screening inhibitors of Ras” (Araxes Pharma LLC, priority 2015, dated 2017).

What was measured:
KRAS G12C = molecular target: T1, KRAS G12C (Homo sapiens, UniProt P01116, G12C); assay: Rate constant of covalent reaction of competition probes with KRAS mutant (mass spectrometry); type: binding
T1 construct: made in house
Description: (§1) RALA mutant proteins were produced with one mutation to cysteine at the 23 position (G23C) relative to SEQ ID NO: 8 when optimally aligned. KRAS mutant proteins were produced with one mutation to cysteine at the 12 position (G12C) relative to SEQ ID NO: 1 when optimally aligned. The RALA and KRAS mutants were tested for reactivity (e.g., covalent modification of the mutant) with a panel of competition probes that bind the Switch II binding pocket and covalently modify the substituted amino acid with appropriately placed electrophiles based on modeling/docking studies. One such inhibitor covalently bound to RAS (via G12) is depicted in FIG. 2. Screening was carried out by mass spectrometry on an Agilent RapidFire or ThermoScientific Q Exactive system.

RALA G23C = molecular target: T2, RALA G23C (Homo sapiens, UniProt P11233, G23C); assay: Rate constant of covalent reaction of competition probes with RALA mutant (mass spectrometry); type: binding
T2 construct: (residues 11-183, either WT or G23C); hexahistidine (TEV-cleavable); made in house; host or cells: Escherichia coli BL21 (DE)
T2 sequence (P11233 11-183 G23C): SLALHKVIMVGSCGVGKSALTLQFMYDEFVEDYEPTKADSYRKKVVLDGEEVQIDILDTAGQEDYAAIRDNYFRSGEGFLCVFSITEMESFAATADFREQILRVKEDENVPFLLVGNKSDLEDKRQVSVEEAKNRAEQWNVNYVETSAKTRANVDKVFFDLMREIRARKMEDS
Description: Hexahistidine-tagged recombinant human RalA (“hexahistidine” disclosed as SEQ ID NO: 49) (residues 11-183, either WT or G23C) was transformed into Escherichia coli (BL21 (DE)). After the bacterial grew to an OD(600) of 0.4-0.6 in Terrific Broth containing 30 mg/L kanamycin at 37° C., induction was carried out at 18° C. using 0.5 mM IPTG and growth was continued at 18° C. for about 18 h. The bacteria were harvested by centrifugation and the obtained pellet was either stored at −80° C. or used freshly for the subsequent steps.
as §1

K-Ras D92C = molecular target: T3, K-Ras D92C (Homo sapiens, UniProt P01116, D92C); assay: QQQ mass spectrometry competition assay for K-Ras D92C binding using competition probe CP-008; settings: CP-008 (100 nM); test compound over a range of concentrations; incubated for 6 h; FIG. 6
T3 construct: made in house
Description: The GDP-loaded K-Ras D92C protein (which also contains a histidine tag) was diluted in a HEPES containing assay buffer shortly before use in the QQQ-assay.
To start the assay an internal nonreactive control compound and competition probe compound (CP-008) were added to the protein solution to form a master mix. The master mix was quickly dispersed in a 96-well plate followed by addition a DMSO stock of the compound of interest. […]
To quench the reaction, the reaction mix was transferred to 2% of formic acid in water (0.2% final in the quenched reaction) in a second plate. After sealing the second plate and quick centrifugation the samples were frozen at −80° C.
The frozen samples were sent on dry ice to Pure Honey Technologies for QQQ-quantitation to determine probe and internal control compound amount in each well. For analysis of the obtained data, the ratio of probe to internal control compound was calculated for each well. The assay window was determined by a negative control (DMSO only, no inhibition) and a positive control (100 μM final of CP-008 at a time point where the probe is fully reacted with protein; assigned 100% inhibition) and allowed the calculation of inhibition of probe depletion by the compound of interest.

| Compound | Rate Constant for Reaction with Indicated Protein, RALA G23C (RALA G23C) [M⁻¹ s⁻¹] | inhibition of competition probe (CP-008) depletion by D92C K-Ras (K-Ras D92C) | Rate Constant for Reaction with Indicated Protein, KRAS G12C (KRAS G12C) [M⁻¹ s⁻¹] |
| --- | --- | --- | --- |
| C=CC(=O)N1CCN(c2ncnc3c(F)c(-c4c(O)cccc4F)c(Cl)cc23)CC1 [CP-012] | <1 | – | 310 |
| C=CC(=O)N1CCN(c2ncnc3cc(Cl)c(-c4cccs4)cc23)CC1 [CP-018] | 17 | – | – |
| C=CC(=O)N1CCN(c2ncnc3cc(Cl)c(-c4ccc(Cl)s4)cc23)CC1 [CP-019] | 6.3 | – | – |
| C=CC(=O)N1CCN(c2ncnc3cc(Cl)c(-c4ccc(C)s4)cc23)CC1 [CP-020] | 19 | – | – |
| CC(=O)N1CCN(c2nc(OCCCN(C)C)nc3c(F)c(-c4cc(O)cc5ccccc45)c(Cl)cc23)CC1 [CP-023, 1-(4-(6-chloro-2-(3-(dimethylamino)propoxy)-8-fluoro-7-(3-hydroxynaphthalen-1-yl)quinazolin-4-yl)piperazin-1-yl)ethanone] | – | less CP-008 is bound to K-Ras | – |
| CN(C)CCCOc1nc(N2CCN(C=O)CC2)c2cc(Cl)c(-c3cc(O)cc4ccccc34)c(F)c2n1 [CP-024, 4-(6-chloro-2-(3-(dimethylamino)propoxy)-8-fluoro-7-(3-hydroxynaphthalen-1-yl)quinazolin-4-yl)piperazine-1-carbaldehyde] | – | less CP-008 is bound to K-Ras | – |

Further lines, with some results ahead:

| Rate Constant for Reaction with Indicated Protein, RALA G23C (RALA G23C) [M⁻¹ s⁻¹] | inhibition of competition probe (CP-008) depletion by D92C K-Ras (K-Ras D92C) | Compound | Rate Constant for Reaction with Indicated Protein, KRAS G12C (KRAS G12C) [M⁻¹ s⁻¹] |
| --- | --- | --- | --- |
| 10.2 | – | C=CC(=O)N1CCN(c2ncnc3cc(Cl)c(-c4ccc(Cl)cc4)cc23)CC1 [CP-013] | – |
| 4.0 | – | C=CC(=O)N1CCN(c2ncnc3cc(Cl)c(-c4ccccc4)cc23)CC1 [CP-014] | – |
| 9.0 | – | C=CC(=O)N1CCN(c2ncnc3cc(Cl)c(-c4ccc(Br)cc4)cc23)CC1 [CP-015] | – |
| 2.6 | – | C=CC(=O)N1CCN(c2ncnc3cc(Cl)c(-c4ccc(C#N)cc4)cc23)CC1 [CP-016] | – |
| 6.0 | – | C=CC(=O)N1CCN(c2ncnc3cc(Cl)c(-c4ccc(O)cc4)cc23)CC1 [CP-017] | – |
